In patent US20190218170A1, “BRANCHED TRIALKYLAMINE PRECURSORS, INTERMEDIATES, PRODUCTS MADE THEREFROM AND PROCESSES OF MANUFACTURE” (priority 2018, published 2019):

Key:
[1] = Draves Wetting Test (ASTM D2281-68); format: physicochemical; conditions: 0.05 wt % (actives basis) in DI water; average of 3 measurements
Protocol: A 0.05 wt % (actives basis) solution of amine oxide in deionized (DI) water was used to determine the Draves wet-out time (WOT) in seconds. 0.75 g of surfactant was dispersed in 1,500 ml of DI water. The wet-out time (WOT) in seconds is recorded in Table 14 (average of 3 measurements). LAO is Lauramine oxide (linear hydrophobe), Sigma catalog number 40236.

[2] = Foam height, high shear (Waring blender); format: physicochemical; conditions: for Foam volume (ml) 5 min / Foam volume (ml) Initial: 0.05 wt % in deionized water; for Foam volume (ml) 5 min: after 5 minutes; for Foam volume (ml) Initial: blended on High 30 seconds; for % decrease: foam volume, initial to 5 min
Protocol: A 0.05 wt % (actives basis) solution of the test surfactant was made in deionized water. 250 ml of the test solution was added the beaker of a Waring blender, capped, and then blended on High for 30 seconds and immediately transferred to a 1 L graduated cylinder. The total volume of foam plus liquid, as well as the liquid layer alone was recorded. The foam and liquid volumes were recorded again after 5 minutes.

[3] = Salt thickening, viscosity of SLS/SLES/amine oxide formulation; format: physicochemical; conditions: shear rate 3/s
Protocol: Linear amine oxides tend to increase the viscosity of a formulation containing NaCl in a dose-dependent manner. The viscosity (cP; shear rate 3/s) of a simple formulation was measured as the salt concentration varied from 0 to 5 wt %.

[4] = Stain removal in cold water, brightness L*; conditions: compared to LAO; additive 0.05% active
Protocol: Amine oxides with linear and branched hydrophobes were compared in a screen for stain removal in cold water. Simple laundry liquid formulations were made that included only surfactants and builder.
Standard stain swatches were purchased from Testfabrics, Inc. (West Pittston, Pa.). STC/CFT PC-S-216 is diluted red lipstick on poly/cotton (65/35), and STC/CFT PC-S-132 is high discriminative sebum (synthetic) with pigment on poly/cotton, both made by Center for Testmaterials BV (CFT; The Netherlands). The swatches were pre-cut into 2 inch squares. The test formulation was diluted with DI water to 0.06% total surfactant to make the wash solution. Additives were added at a final concentration of 0.05% active in the wash solution. Stained fabric swatches were added to the wash solution, washed and rinsed at 20° C., and air-dried. The average swatch brightness (L*) for each treatment, and standard deviation, are reported for 3 replicates. […] All treatments are brighter than the untreated stain swatches. The nonionics NPE and LAE7 removed the lipstick and sebum stains to the same brightness.

[5] = High-shear foaming of N-alkyl-N-methylglucamines in commercial blender; format: physicochemical; conditions: 1 wt % test substance in 10 wt % SDS, diluted to 0.05 wt % surfactant
Protocol: The high-shear foaming behavior of linear and branched N-alkyl-N glucamines was investigated, as this can have an impact on their performance in home care applications. […] The solutions were heated to 80° C., ultrasonicated for 1 h, and cooled to room temperature. Finally, the as-obtained solutions were diluted with MilliQ water to obtain a 0.05 wt % surfactant solution. In agreement with the literature on branched hydrophobes, the high-shear foaming tests performed in the commercial blender indicate that the linear N-decyl-N-methylglucamine (IC10 NMG) solution foams relatively more than its branched counterpart solution. For all solutions, the initial foam volume is between 40 and 53 mL. Lauramine oxide (LAO) appears to be foamier than the N-alkyl-N-methylglucamines.

[6] = system: zein protein; conditions: 1% surfactant solution, 30 C, 30 minutes
Description: Amine oxides with linear and branched hydrophobes from Examples 65 and 66 were compared in a screen to predict mildness of surfactants. There is a correlation between the ability of a surfactant to denature a protein and the skin irritation potential of that surfactant. The relationship is believed to result from surfactant binding to proteins like keratin, followed by the denaturation of these proteins, leading to skin irritation. A common screening test involves measuring the amount of zein (a corn protein which is insoluble in water) solubilized by a surfactant solution, the Zein Solubilization Test (Moore et al., 2003 and references therein)
For the test, 0.0750 g of zein protein is transferred into a 1.5 mL centrifuge tube. To this 1.5 mL of 1% surfactant solution is added, mixed, and placed in a 30 C incubator with mild stirring for 30 minutes. After 30 minutes has elapsed, the tube is centrifuged for 30 min at 3600 rpm. The solution is filtered through a pre-weighed 8 micron filter paper, and then dried overnight in a 50° C. oven. The insoluble zein residue is then weighed and the wt % Zein dissolved is calculated using the equation below. Each solution is analyzed in triplicate. The Zein score is normalized to a standard included in each set of tests, in this case LAE10.
% zein dissolved=(total zein added−total zein after drying Total zein added)×100

[7] = Foaming of amine oxide added to commercial laundry liquid (Waring blender); format: physicochemical; set-up: Difference: unit: ml; conditions: for Difference: initial minus 5 min foam volume
Protocol: The surface foam volume and foam persistence of solutions of the amine oxides with linear and branched hydrophobes from Examples […] were compared. A commercial laundry liquid was diluted in deionized water according to the dosing instructions; 4.2 ml/L Persil Original. The diluted detergent was supplemented with 0%, 2%, 5% (based on wt laundry liquid) of LAO or Branched C12 AO, (2,4-diethyl-N,N-dimethyloctan-1-amine oxide, Example 66), and the solutions mixed briefly and used immediately. 250 ml of each test solution was added the beaker of a Waring blender, capped, and then blended on High for 30 seconds and immediately transferred to a 1 L graduated cylinder. The total volume of foam plus liquid, as well as the liquid layer alone was recorded. The foam and liquid volumes were recorded again after 5 minutes. All tests were performed in triplicate.

[8] = NaCl 0 wt %, 1.4% amine oxide, 4.3% SLS, 4.3% SLES

CCCCC(CC)CC(C)C[N+](C)(C)[O-] (stereo not shown) [Example 65, 4-ethyl-N,N-2-trimethyloctan-1-amine oxide]
Wet out time [1]: >300 s
Foam volume (ml) 5 min [2]: 0 mL
Foam volume (ml) Initial [2]: 267 mL
% decrease [2]: 100%
Viscosity [3, 8]: 2 cP
Viscosity ([3]; NaCl 0.5 wt %): 7 cP
Viscosity ([3]; NaCl 1.0 wt %): 36 cP
Viscosity ([3]; NaCl 1.5 wt %): 257 cP
Viscosity ([3]; NaCl 2.0 wt %): 2,050 cP
Viscosity ([3]; NaCl 2.5 wt %): 3,635 cP
Viscosity ([3]; NaCl 3.0 wt %): 3,459 cP
Viscosity ([3]; NaCl 3.5 wt %): 2,021 cP
Viscosity ([3]; NaCl 4.0 wt %): 670 cP
Viscosity ([3]; NaCl 4.5 wt %): 288 cP
Viscosity ([3]; NaCl 5.0 wt %): 148 cP
foam in the wash solution [4]: very little foam

CCCCCCCCCCCC[N+](C)(C)[O-] [LAO, N,N-dimethyl laurylamine oxide, reference compound]
Foam volume after 5 seconds stirring at speed 1 [5]: 53 mL
Foam volume after 5 minutes settling [5]: 50 mL
Wet out time [1]: 33 s
Foam volume (ml) 5 min [2]: 500 mL
Foam volume (ml) Initial [2]: 523 mL
% decrease [2]: 4%
Viscosity [3, 8]: 2 cP
Viscosity ([3]; NaCl 0.5 wt %): 2 cP
Viscosity ([3]; NaCl 1.0 wt %): 11 cP
Viscosity ([3]; NaCl 1.5 wt %): 115 cP
Viscosity ([3]; NaCl 2.0 wt %): 1,494 cP
Viscosity ([3]; NaCl 2.5 wt %): 7,562 cP
Viscosity ([3]; NaCl 3.0 wt %): 17,343 cP
Viscosity ([3]; NaCl 3.5 wt %): 25,302 cP
Viscosity ([3]; NaCl 4.0 wt %): 27,585 cP
Viscosity ([3]; NaCl 4.5 wt %): 24,918 cP
Viscosity ([3]; NaCl 5.0 wt %): 19,368 cP
Zein score - normalized to LAE10 [6]: 4.212
Foam volume After 5 min ([7]; Persil + 2% additive): 473 mL
Difference ([7]; Persil + 2% additive): 54
Foam volume After 5 min ([7]; Persil + 5% additive): 507 mL
Difference ([7]; Persil + 5% additive): 6
Initial foam volume ([7]; Persil Original 4.2 ml/L + 2% additive): 527 mL
Initial foam volume ([7]; Persil Original 4.2 ml/L + 5% additive): 513 mL
